For data set [1] the following is noted: 101.3 kPa, Liquid.
A short description of data set [2]: xn = mol fraction of the nth substance listed. The following applies: 101.3 kPa, Liquid, x2 = 0.

± gives the expanded uncertainty stated by the source.

As a reminder, the mass density is mass per unit of volume.

With `CCC(C)O` (centres undefined) [butan-2-ol], the mass density was 810.689 ± 0.55 kg/m3 in data set [1] (288.15 K); 806.646 ± 0.56 kg/m3 in data set [1] (293.15 K); 802.528 ± 0.56 kg/m3 in data set [1] (298.15 K); 798.326 ± 0.57 kg/m3 in data set [1] (303.15 K); 794.03 ± 0.57 kg/m3 in data set [1] (308.15 K); 789.632 ± 0.58 kg/m3 in data set [1] (313.15 K). The mass density in data set [1] (318.15 K) amounted to 785.117 ± 0.58 kg/m3; in data set [1] (323.15 K) it was 780.515 ± 0.59 kg/m3.
As to `CCCCCCC` [heptane], the mass density in data set [1] (288.15 K) was found to be 687.954 ± 0.64 kg/m3; in data set [1] (293.15 K), 683.733 ± 0.64 kg/m3; in data set [1] (298.15 K) it was 679.494 ± 0.65 kg/m3; in data set [1] (303.15 K), 675.229 ± 0.66 kg/m3; in data set [1] (308.15 K), 670.941 ± 0.66 kg/m3; in data set [1] (313.15 K) it was 666.621 ± 0.67 kg/m3. Moreover, the mass density in data set [1] (318.15 K) stood at 662.273 ± 0.68 kg/m3; in data set [1] (323.15 K), 657.896 ± 0.68 kg/m3.
Consider `CCCCCCC` [heptane] + CCC(C)O, for which the mass density in data set [2] (288.15 K) is given as 687.954 ± 0.64 kg/m3; in data set [2] (293.15 K), 683.733 ± 0.64 kg/m3; in data set [2] (298.15 K), 679.494 ± 0.65 kg/m3; in data set [2] (303.15 K) it was 675.229 ± 0.66 kg/m3; in data set [2] (308.15 K), 670.941 ± 0.66 kg/m3; in data set [2] (313.15 K) it was 666.621 ± 0.67 kg/m3. Also, the mass density in data set [2] (318.15 K) is given as 662.273 ± 0.68 kg/m3; in data set [2] (323.15 K) it was 657.896 ± 0.68 kg/m3.

(Values after the NIST ThermoML archive (doi:10.1021/je900715y).)
